Data: ChEMBL document CHEMBL3091403, “Desmethyl Macrolides: Synthesis and Evaluation of 4,8,10-Tridesmethyl Cethromycin” (2013)
≈ marks a conversion by molar mass, not a printed value.

Assays:
Format in all cases: functional
Staphylococcus aureus [1] = test: Antibacterial activity against Staphylococcus aureus UCN14 harboring ribosomal A2058U mutant
Escherichia coli [2] = test: Antibacterial activity against wild-type Escherichia coli DK/pKK3535
Escherichia coli [3] = test: Antibacterial activity against Escherichia coli SQ171/2058G harboring ribosomal A2058G mutant
Staphylococcus aureus [4] = test: Antibacterial activity against Staphylococcus aureus ATCC 33591 harboring ribosomal ermA mutant
Escherichia coli [5] = test: Antibacterial activity against Escherichia coli DK/2058G harboring ribosomal A2058G mutant

SMILES: CC[C@H]1OC(=O)[C@H](C)C(=O)C[C@@H](O[C@@H]2O[C@H](C)C[C@H](N(C)C)[C@H]2O)[C@](C)(OC/C=C/c2cnc3ccccc3c2)CCC(=O)C[C@H]2NC(=O)O[C@@]21C
- MIC (Staphylococcus aureus [1]): > 256 µg/mL
- MIC (Escherichia coli [2]): 2 µg/mL (≈ 2.76 µM)
- MIC (Escherichia coli [3]): > 256 µg/mL
- MIC (Staphylococcus aureus [4]): > 64 µg/mL
- MIC (Escherichia coli [5]): 1 µg/mL (≈ 1.38 µM)
